Assay results from PubChem BioAssay AID2060618 (Molecular Pharmacology Branch, DTP, NCI, 2025).
Several values for one entry are separate records, joined by “and”; a condition that tells them apart may be missing. Equal values may be shown once.

System: 454973-116-R2-J3-PDC spheroids, percent test/control viability
Assay: Anticancer human tumor 454973-116-R2-J3-PDC patient-derived pancreatic carcinoma cell line growth inhibition [CLK]
Conditions: spheroids with HUVEC and MSC; for viability, T/C: stronger effect = lower value; active = viability on the fitted dose curve at most 10% of control; inactive = the rest
How it was run: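 Patient-derived tumor cells grown as complex spheroids with HUVEC endothelial cells and mesenchymal stem cells, treated with drug combinations. Concentrations descend in half-log steps from near clinical Cmax, or from 10 microM if Cmax unknown.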

[1] = curve of first compound, second compound 0.0316 µM
[2] = curve of first compound, second compound 0.1 µM
[3] = curve of first compound, second compound 0.316 µM
[4] = curve of first compound, second compound 1 µM
[5] = curve of first compound, second compound 3.16 µM
[6] = curve of first compound, second compound 10 µM
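Also: spheroids exposed to compounds for 7 days before readout.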

C=CC(=O)Nc1cc(Nc2nccc(-c3cn(C)c4ccccc34)n2)c(OC)cc1N(C)CCN(C)C + CNC(=O)c1ccc(Nc2nc(OC3CCCC3)c3c(-c4ccc5nc(C)oc5c4)c[nH]c3n2)c(OC)c1
< 0.949 nM: IC50 [3] | IC50 [4] | IC50 [5] | IC50 [6]
> 300 nM: IC50 [1] | IC50 [2]
inactive: viability, T/C (second compound 0.0316 µM, first compound 0.000949 µM) 106% | viability, T/C (second compound 0.0316 µM, first compound 0.003 µM) 108% | viability, T/C (second compound 0.0316 µM, first compound 0.00949 µM) 92.5% | viability, T/C (second compound 0.0316 µM, first compound 0.03 µM) 107% | viability, T/C (second compound 0.0316 µM, first compound 0.0949 µM) 104% | viability, T/C (second compound 0.0316 µM, first compound 0.3 µM) 101% | viability, T/C (second compound 0.1 µM, first compound 0.000949 µM) 95.9% | viability, T/C (second compound 0.1 µM, first compound 0.003 µM) 106% | viability, T/C (second compound 0.1 µM, first compound 0.00949 µM) 90.7% | viability, T/C (second compound 0.1 µM, first compound 0.03 µM) 80.9% | viability, T/C (second compound 0.1 µM, first compound 0.0949 µM) 69.7% | viability, T/C (second compound 0.1 µM, first compound 0.3 µM) 61% | viability, T/C (second compound 0.316 µM, first compound 0.000949 µM) 43.8% | viability, T/C (second compound 0.316 µM, first compound 0.003 µM) 36.4% | viability, T/C (second compound 0.316 µM, first compound 0.00949 µM) 30.5% | viability, T/C (second compound 0.316 µM, first compound 0.03 µM) 34.8% | viability, T/C (second compound 0.316 µM, first compound 0.0949 µM) 36.4% | viability, T/C (second compound 0.316 µM, first compound 0.3 µM) 32.7% | viability, T/C (second compound 1 µM, first compound 0.000949 µM) 27.9% | viability, T/C (second compound 1 µM, first compound 0.003 µM) 30.9% | viability, T/C (second compound 1 µM, first compound 0.00949 µM) 30.5% | viability, T/C (second compound 1 µM, first compound 0.03 µM) 29.8% | viability, T/C (second compound 1 µM, first compound 0.0949 µM) 34.5% | viability, T/C (second compound 1 µM, first compound 0.3 µM) 33.9% | viability, T/C (second compound 3.16 µM, first compound 0.000949 µM) 29.9% | viability, T/C (second compound 3.16 µM, first compound 0.003 µM) 28.3% | viability, T/C (second compound 3.16 µM, first compound 0.00949 µM) 26.7% | viability, T/C (second compound 3.16 µM, first compound 0.03 µM) 27.8% | viability, T/C (second compound 3.16 µM, first compound 0.0949 µM) 31.1% | viability, T/C (second compound 3.16 µM, first compound 0.3 µM) 22.1% | viability, T/C (second compound 10 µM, first compound 0.000949 µM) 33.9% | viability, T/C (second compound 10 µM, first compound 0.003 µM) 24% | viability, T/C (second compound 10 µM, first compound 0.00949 µM) 21.9% | viability, T/C (second compound 10 µM, first compound 0.03 µM) 25.4% | viability, T/C (second compound 10 µM, first compound 0.0949 µM) 27.9% | viability, T/C (second compound 10 µM, first compound 0.3 µM) 20.4%

CCN1CCN(Cc2ccc(Nc3ncc(F)c(-c4cc(F)c5nc(C)n(C(C)C)c5c4)n3)nc2)CC1 + CNC(=O)c1ccc(Nc2nc(OC3CCCC3)c3c(-c4ccc5nc(C)oc5c4)c[nH]c3n2)c(OC)c1
inactive: viability, T/C (second compound 0.0316 µM, first compound 0.00316 µM) 103% | viability, T/C (second compound 0.0316 µM, first compound 0.01 µM) 90.4% | viability, T/C (second compound 0.0316 µM, first compound 0.0316 µM) 82.8% | viability, T/C (second compound 0.0316 µM, first compound 0.1 µM) 69.1% | viability, T/C (second compound 0.0316 µM, first compound 0.316 µM) 67.2% | viability, T/C (second compound 0.0316 µM, first compound 1 µM) 60.4% | viability, T/C (second compound 0.1 µM, first compound 0.00316 µM) 96.8% | viability, T/C (second compound 0.1 µM, first compound 0.01 µM) 84.7% | viability, T/C (second compound 0.1 µM, first compound 0.0316 µM) 79.2% | viability, T/C (second compound 0.1 µM, first compound 0.1 µM) 67.2% | viability, T/C (second compound 0.1 µM, first compound 0.316 µM) 63.4% | viability, T/C (second compound 0.1 µM, first compound 1 µM) 56.2% | viability, T/C (second compound 0.316 µM, first compound 0.00316 µM) 44.8% | viability, T/C (second compound 0.316 µM, first compound 0.01 µM) 44.4% | viability, T/C (second compound 0.316 µM, first compound 0.0316 µM) 54.5% | viability, T/C (second compound 0.316 µM, first compound 0.1 µM) 55.6% | viability, T/C (second compound 0.316 µM, first compound 0.316 µM) 52.5% | viability, T/C (second compound 0.316 µM, first compound 1 µM) 63.6% | viability, T/C (second compound 1 µM, first compound 0.00316 µM) 34.4% | viability, T/C (second compound 1 µM, first compound 0.01 µM) 34.1% | viability, T/C (second compound 1 µM, first compound 0.0316 µM) 39% | viability, T/C (second compound 1 µM, first compound 0.1 µM) 43% | viability, T/C (second compound 1 µM, first compound 0.316 µM) 43.3% | viability, T/C (second compound 1 µM, first compound 1 µM) 47% | viability, T/C (second compound 3.16 µM, first compound 0.00316 µM) 30.6% | viability, T/C (second compound 3.16 µM, first compound 0.01 µM) 35.5% | viability, T/C (second compound 3.16 µM, first compound 0.0316 µM) 37.2% | viability, T/C (second compound 3.16 µM, first compound 0.1 µM) 39.1% | viability, T/C (second compound 3.16 µM, first compound 0.316 µM) 38.5% | viability, T/C (second compound 3.16 µM, first compound 1 µM) 46.2% | viability, T/C (second compound 10 µM, first compound 0.00316 µM) 27.5% | viability, T/C (second compound 10 µM, first compound 0.01 µM) 27% | viability, T/C (second compound 10 µM, first compound 0.0316 µM) 33.5% | viability, T/C (second compound 10 µM, first compound 0.1 µM) 37.8% | viability, T/C (second compound 10 µM, first compound 0.316 µM) 41.8% | viability, T/C (second compound 10 µM, first compound 1 µM) 47.3%
> 1000 nM: IC50 [1] | IC50 [2]
< 3.16 nM: IC50 [3] | IC50 [4] | IC50 [5] | IC50 [6]

COc1cccc2c1C(=O)c1c(O)c3c(c(O)c1C2=O)CC(O)(C(=O)CO)CC3OC1CC(N)C(O)C(C)O1 (stereo not given)
active: viability, T/C (compound 1 µM) 6.76% and 3.88% | viability, T/C (compound 3.16 µM) 0.39% and 1.8% | viability, T/C (compound 10 µM) 2.07% and 3.53%
42.3 nM and < 31.6 nM: IC50 (curve of compound)
inactive: viability, T/C (compound 0.0316 µM) 58.7% and 49.7% | viability, T/C (compound 0.1 µM) 23% and 19.8% | viability, T/C (compound 0.316 µM) 21.2% and 19.8%

O=C(c1cc(Cc2n[nH]c(=O)c3ccccc23)ccc1F)N1CCN(C(=O)C2CC2)CC1
inactive: viability, T/C (compound 0.0316 µM) 115% and 104% | viability, T/C (compound 0.1 µM) 95.9% and 101% | viability, T/C (compound 0.316 µM) 99.6% and 101% | viability, T/C (compound 1 µM) 101% and 99.2% | viability, T/C (compound 3.16 µM) 94.5% and 98.7% | viability, T/C (compound 10 µM) 71.1% and 77.5%
> 10000 nM: IC50 (curve of compound)

CCc1c2c(nc3ccc(O)cc13)-c1cc3c(c(=O)n1C2)COC(=O)[C@]3(O)CC
< 3.16 nM: IC50 (curve of compound)
active: viability, T/C (compound 0.1 µM) 6.22% and 7.38% | viability, T/C (compound 0.316 µM) 2.81% and 3.92% | viability, T/C (compound 1 µM) 1.02% and 3.21%
12% and 13%: viability, T/C (compound 0.0316 µM)
inactive: viability, T/C (compound 0.00316 µM) 39.9% and 31.5% | viability, T/C (compound 0.01 µM) 15.9% and 14.3%
